Assay results reported in patent US9833487B2, “Composition for preventing and treating arthritic diseases” (priority 2008, dated 2017).

Legend:
[1] = tested on: proteoglycan mRNA in cartilage tissue; assay: Gene expression of proteoglycan (RT-PCR); assay type: cell-based, human; conditions: IL-1α treated cartilage tissue; FIG. 13
Protocol: (§1) The joint cartilage of human was provided from the patient who had taken artificial joint surgery (Orthopedics Surgery Dep. of Kyunghee Medical Center). […] The tissue was washed with the medium several times and then the articular tissue was cultured at 37° C. in humidified […] incubator. 1 or 2 days after the incubation, the medium was replaced with new basic medium containing inactivated 5% fetal bovine serum with heat treatment, 10 mM HEPES, and 100 unit/ml of penicillin-streptomycin, and 30 mg of the chondrocyte was transferred to 48-well plate. After culturing for 1 hour, 5 ng/μl of interleukin-1α (IL-1α, R&D system, USA) was added to the medium to induce inflammation and various concentrations of test sample (KM-1), ETCP (SK Chemicals), Celecoxib (CEL, Pfizer Co., USA), and Glucosamine (GLUCO, Sigma Co., USA), i.e., 0.1, 0.2, and 0.4 mg/ml, were added thereto respectively. […] The stained product was washed for 10 minutes with distilled water and the result was determined at UV wavelength (260 nm). The expression of proteoglycan and Col II gene collected from the cartilage tissue and chondrocytic cell of rabbit in above Reference Example 3 was determined and the test was performed by using reverse transcription polymerase chain reaction (RT-PCR) with the method disclosed in Reference Example 4.

[2] = tested on: type II collagen mRNA in cartilage tissue; assay: Gene expression of Col II (RT-PCR); assay type: cell-based, human; conditions: IL-1α treated cartilage tissue; FIG. 13
Protocol: as §1

MMP-13 (collagenase-13) = assay: MMP-13 activity in human cartilage tissue medium; assay type: cell-based; conditions: FIG. 14
Protocol: (§2) The joint cartilage of human was provided from the patient who had taken artificial joint surgery (Orthopedics Surgery Dep. of Kyunghee Medical Center). […] The tissue was washed with the medium several times and then the articular tissue was cultured at 37° C. in humidified […] incubator. 1 or 2 days after the incubation, the medium was replaced with new basic medium containing inactivated 5% fetal bovine serum with heat treatment, 10 mM HEPES, and 100 unit/ml of penicillin-streptomycin, and 30 mg of the chondrocyte was transferred to 48-well plate. After culturing for 1 hour, 5 ng/μl of interleukin-1α (IL-1α, R&D system, USA) was added to the medium to induce inflammation and various concentrations of test sample (KM-1), ETCP (SK Chemicals), Celecoxib (CEL, Pfizer Co., USA), and Glucosamine (GLUCO, Sigma Co., USA), i.e., 0.1, 0.2, and 0.4 mg/ml, were added thereto respectively. […] In order to measure proteolytic activity, each 25 μl of medium was added to 96-well plate with 50 μl of the substrate to incubate at 37° C. for 1 hr and the optical density was measured by ELISA reader (Molecular devices, USA) at 450 nm. The activity of each sample on MMP-1 and MMP-13 was determined by calculating the MMP (%) of medium in each well.

pJNK = assay: MAPK phosphorylation (western blot), pJNK; assay type: cell-based, human; conditions: FIG. 18
pERK = assay: MAPK phosphorylation (western blot), pERK; assay type: cell-based, human; conditions: FIG. 18
pp 38 = assay: MAPK phosphorylation (western blot), pp38; assay type: cell-based, human; conditions: FIG. 18
[3] = tested on: GAG degradation in human articular cartilage tissue; assay: Dissociation of glycosaminoglycan (DMB assay), IL-1α induced cartilage tissue; assay type: cell-based; conditions: 0.1, 0.2, 0.4 mg/ml, FIG. 12
Protocol: The joint cartilage of human was provided from the patient who had taken artificial joint surgery (Orthopedics Surgery Dep. of Kyunghee Medical Center). […] The tissue was washed with the medium several times and then the articular tissue was cultured at 37° C. in humidified […] incubator. 1 or 2 days after the incubation, the medium was replaced with new basic medium containing inactivated 5% fetal bovine serum with heat treatment, 10 mM HEPES, and 100 unit/ml of penicillin-streptomycin, and 30 mg of the chondrocyte was transferred to 48-well plate. After culturing for 1 hour, 5 ng/μl of interleukin-1α (IL-1α, R&D system, USA) was added to the medium to induce inflammation and various concentrations of test sample (KM-1), ETCP (SK Chemicals), Celecoxib (CEL, Pfizer Co., USA), and Glucosamine (GLUCO, Sigma Co., USA), i.e., 0.1, 0.2, and 0.4 mg/ml, were added thereto respectively. […] The concentration of GAG in the culture medium of cartilage tissue incubated with the procedure disclosed in Reference Example 3 was measured by determining the amount of polyanionic substance produced by being reacted with blyscan dye solution and chondroitin sulfate was used as a standard. […] The amount of spectroscopic GAG was determined at 540 nm and the inhibition rate was expressed based on the amount of degradated GAG induced by interleukin-1α (IL-1α).

MMP-1 (collagenase-1) = assay: MMP-1 activity in human cartilage tissue medium; assay type: cell-based; conditions: FIG. 15
Protocol: as §2

## O=C(/C=C/c1ccc(O)c(O)c1)O[C@@H]1C[C@](O)(C(=O)O)C[C@@H](O)[C@H]1O [chlorogenic acid]
[1]
  mRNA gene expression of proteoglycan: increased mRNA gene expression of proteoglycan and type II collagen
[2]
  mRNA gene expression of type II collagen: increased mRNA gene expression of proteoglycan and type II collagen
MMP-13 (collagenase-13)
  inhibition of MMP-13 activity: significantly inhibited the activity of collagenase MMP-1 and MMP-13 in a dose dependent manner
pJNK
  inhibition of pJNK: potently inhibited
pERK
  inhibition of pERK: inhibited the activity of pERK
Pp 38
  inhibition of pp 38: potently inhibited
[3]
  inhibition of the degradation of GAG: potently inhibited the degradation of GAG
MMP-1 (collagenase-1)
  inhibition of MMP-1 activity: significantly inhibited the activity of collagenase MMP-1 and MMP-13 in a dose dependent manner
